Experimental findings from ChEMBL document CHEMBL3600319, “Chemical constituents isolated from the Mongolian medicinal plant Sophora alopecuroides L. and their inhibitory effects on LPS-induced nitric oxide production in RAW 264.7 macrophages” (Bioorg Med Chem Lett, 2015) are described below.

Data set [1] concerns RAW264.7. Briefly: Antiinflammatory activity in mouse RAW264.7 cells assessed as inhibition of LPS-stimulated nitric oxide production after 24 hrs by Griess method. The data set is classed as functional, cell-based. The note with it: RAW264.7, 24 h. Background: Nitrite, measured by Griess reagent, commonly stands in for NO production.
The test system of data set [2] is RAW264.7. Briefly: Cytotoxicity against mouse RAW264.7 cells assessed as cell viability at IC50 by MTT assay. It counts as cell-based. (In general: Formazan colour is commonly taken as a measure of viable cells.)
The subject of data set [3] is RAW264.7. Briefly: Potency index, ratio of aminoguanidine IC50 to compound IC50 for mouse RAW264.7 cells. It counts as functional.

For the compound `C=C(C)C(CCC(C)(C)O)Cc1c2c(c(O)c3c1O[C@H](c1ccc(O)cc1)[C@H]3c1cc(O)cc(O)c1)C(=O)C[C@@H](c1ccc(O)cc1O)O2` (stereo partly specified), the half-maximal inhibitory concentration (IC50) in data set [1] came to 32.7 µM. Further, the Activity entry in data set [2] was “Non-toxic”.

`CC1(C)CCC(Cc2c3c(c(O)c4c2O[C@H](c2ccc(O)cc2)[C@H]4c2cc(O)cc(O)c2)C(=O)C[C@@H](c2ccc(O)cc2O)O3)C(C)(C)O1` (stereo partly specified): the concentration for half-maximal inhibition (IC50) in data set [1] was 27.8 µM. The Activity entry in data set [2] is recorded as “Non-toxic”.

In the case of `C=C(C)C(CC=C(C)C)Cc1c2c(c(O)c3c1O[C@@H](c1ccc(O)cc1)[C@H]3c1cc(O)cc(O)c1)C(=O)C[C@@H](c1ccc(O)cc1O)O2` (stereo partly specified), the half-maximal inhibitory concentration (IC50) in data set [1] was determined as 15.9 µM. Also, in data set [2], the Activity result is given as “Non-toxic”.

Regarding `CC(C)=CCc1c2c(c(O)c3c1O[C@H](c1ccc(O)cc1)[C@H]3c1cc(O)cc(O)c1)C(=O)C[C@@H](c1ccc(O)cc1)O2`, the concentration for half-maximal inhibition (IC50) in data set [1] stood at 19 µM. Besides, in data set [2], the Activity result was “Non-toxic”.

Regarding `CC(C)=CCc1c2c(c(O)c3c1O[C@H](c1ccc(O)cc1)[C@H]3c1cc(O)cc(O)c1)C(=O)C[C@@H](c1ccc(O)cc1O)O2`, the IC50 in data set [1] was 7.3 µM. In addition, the Activity entry in data set [2] was “Non-toxic”. In addition, in data set [3], the “Ratio IC50” value is listed as 3.

In the case of `CC(C)=CCC1Cc2c(cc(O)c3c2O[C@H](c2ccc(O)cc2O)CC3=O)OC1(C)C` (stereo partly specified), the IC50 in data set [1] worked out at 10.7 µM. For the same compound, the Activity entry in data set [2] is “Non-toxic”.

On to `C=CC(C)(C)c1c(OC)cc(O)c2c(=O)c3c(CC=C(C)C)c(O)c(O)cc3oc12` [CUDRAXANTHONE D], for which the IC50 in data set [1] was 16.1 µM. Also, the Activity entry in data set [2] was “Non-toxic”.

Take `C=C(C)C(CC=C(C)C)Cc1c(O)cc(OC)c2c1O[C@H](c1ccc(O)cc1O)CC2=O` (stereo partly specified) [KURARINONE]: in data set [1], the IC50 is 26.6 µM. Further, the Activity entry in data set [2] is recorded as “Non-toxic”.

Regarding `Oc1ccc([C@@H]2c3c(O)cc(O)cc3[C@H]3[C@H](c4ccc(O)cc4)c4c(O)cc(O)cc4[C@@H]23)cc1` [PALLIDOL], the IC50 in data set [1] was over 50 µM. In addition, in data set [2], the Activity result is given as “Non-toxic”.

Take `N=C(N)NN` [PIMAGEDINE]: the half-maximal inhibitory concentration (IC50) in data set [1] turned out to be 20.6 µM.

Take `CC(C)=CCc1c(O)cc(O)c2c1OC(c1ccc(O)cc1)CC2=O` (stereo unspecified) [SOPHORAFLAVANONE B]: the IC50 in data set [1] was found to be 26.3 µM. The Activity result in data set [2] is “Non-toxic”.

For `C=C(C)[C@H](CC=C(C)C)Cc1c(O)cc(O)c2c1O[C@H](c1ccc(O)cc1O)CC2=O` [SOPHORAFLAVANONE G], the IC50 in data set [1] turned out to be 10.9 µM. For the same compound, the Activity entry in data set [2] is recorded as “Non-toxic”.

On to `OC[C@H]1O[C@@H](Oc2ccc3c(c2)OC[C@H]2c4cc5c(cc4O[C@@H]32)OCO5)[C@H](O)[C@@H](O)[C@@H]1O` [TRIFOLIRHIZIN], for which, in data set [1], the IC50 is over 50 µM. Also, the Activity entry in data set [2] is “Non-toxic”.

What is called IC50 is the point on the concentration scale where inhibition reaches its midpoint.
